# Measured values reported in ChEMBL document CHEMBL1137106, “Piperazinebenzylamines as potent and selective antagonists of the human melanocortin-4 receptor” (Bioorg Med Chem Lett, 2004).
# What was measured:
# Cell line [1] = assay: Percentage of alpha-MSH stimulated cAMP level at 10 uM; format: functional, Homo sapiens
# Melanocortin receptor 4 [2] = molecular target: T1, Melanocortin receptor 4 (Homo sapiens, UniProt P32245); assay: Binding affinity towards human melanocortin 4 receptor expressed in HEK 293 cells was determined by using [125I]NDP-MSH as radioligand; format: cell-based, HEK293
# T1 sequence (P32245 whole entry): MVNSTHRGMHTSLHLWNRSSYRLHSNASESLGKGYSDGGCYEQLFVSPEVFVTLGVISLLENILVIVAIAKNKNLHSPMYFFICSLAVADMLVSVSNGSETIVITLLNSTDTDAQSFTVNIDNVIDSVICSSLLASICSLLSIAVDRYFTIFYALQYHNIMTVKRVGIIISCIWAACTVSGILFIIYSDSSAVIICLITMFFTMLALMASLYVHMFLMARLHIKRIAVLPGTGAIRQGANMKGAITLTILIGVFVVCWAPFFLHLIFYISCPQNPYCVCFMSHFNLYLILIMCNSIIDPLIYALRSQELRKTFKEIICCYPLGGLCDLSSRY
# Melanocortin receptor 3 = Melanocortin receptor 3 (Homo sapiens, UniProt P41968); assay: Binding affinity towards human melanocortin 3 receptor expressed in HEK 293 cells was determined by using [125I]NDP-MSH as radioligand; format: cell-based, HEK293
# Chain of Melanocortin receptor 3 (P41968 whole entry): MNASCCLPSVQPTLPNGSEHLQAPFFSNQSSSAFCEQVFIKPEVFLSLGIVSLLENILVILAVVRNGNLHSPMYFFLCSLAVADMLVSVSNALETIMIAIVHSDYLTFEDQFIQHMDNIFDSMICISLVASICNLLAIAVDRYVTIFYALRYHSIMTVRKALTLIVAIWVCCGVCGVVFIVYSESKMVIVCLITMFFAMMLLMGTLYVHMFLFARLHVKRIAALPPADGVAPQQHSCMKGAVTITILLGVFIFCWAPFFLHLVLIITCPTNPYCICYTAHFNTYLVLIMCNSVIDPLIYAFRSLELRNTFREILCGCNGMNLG
# Melanocortin receptor 5 = Melanocortin receptor 5 (Homo sapiens, UniProt P33032); assay: Binding affinity towards human melanocortin 5 receptor expressed in HEK 293 cells was determined by using [125I]NDP-MSH as radioligand; format: cell-based, HEK293
# Chain of Melanocortin receptor 5 (P33032 whole entry): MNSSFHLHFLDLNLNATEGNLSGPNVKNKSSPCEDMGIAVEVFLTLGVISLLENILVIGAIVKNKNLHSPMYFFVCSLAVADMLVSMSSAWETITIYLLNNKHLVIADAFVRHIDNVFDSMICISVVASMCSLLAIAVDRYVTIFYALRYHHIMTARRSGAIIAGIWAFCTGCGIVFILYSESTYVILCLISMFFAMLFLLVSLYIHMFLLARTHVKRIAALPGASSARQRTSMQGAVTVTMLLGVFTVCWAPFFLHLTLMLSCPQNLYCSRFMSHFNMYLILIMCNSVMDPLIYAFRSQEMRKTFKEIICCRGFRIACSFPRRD
# [3] = molecular target: T2, Melanocyte-stimulating hormone receptor (Homo sapiens, UniProt Q01726); assay: Binding affinity towards human melanocortin 1 receptor expressed in HEK 293 cells was determined by using [125I]NDP-MSH as radioligand; format: cell-based, HEK293
# Target sequence in this assay (Q01726 whole entry): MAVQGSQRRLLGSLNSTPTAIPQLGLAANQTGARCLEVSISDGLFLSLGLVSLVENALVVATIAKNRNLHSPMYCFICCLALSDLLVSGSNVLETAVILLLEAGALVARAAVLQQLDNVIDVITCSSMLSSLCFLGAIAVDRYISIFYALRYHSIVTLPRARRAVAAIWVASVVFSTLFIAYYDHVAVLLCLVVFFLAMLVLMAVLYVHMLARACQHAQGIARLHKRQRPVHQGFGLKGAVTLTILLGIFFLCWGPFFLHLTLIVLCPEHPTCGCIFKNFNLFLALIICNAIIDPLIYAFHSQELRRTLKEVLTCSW
# Cell line [4] = assay: Concentration required for inhibition of alpha-MSH stimulated cAMP production by 50%; format: functional, cell-based; details: Homo sapiens
# Cell line [5] = assay: Effective concentration required for alpha-MSH stimulated cAMP production at 10 uM; format: functional, cell-based; details: Homo sapiens
# [6] = molecular target: T2, Melanocyte-stimulating hormone receptor; assay: Percent inhibition of [125I]NDP-MSH binding to human melanocortin 1 receptor expressed in HEK 293 cells at 10 uM; format: cell-based; details: HEK293
# Target sequence in this assay (Q01726 whole entry, looked up): as the sequence (Q01726 whole entry) above
# Melanocortin receptor 4 [7] = molecular target: T1, Melanocortin receptor 4; assay: Tested for inhibition of binding to MC4 receptor
# Cell line [8] = assay: Effective concentration required for alpha-MSH stimulated cAMP production; format: functional, cell-based; details: Homo sapiens
# [9] = Tested for inhibition of NDP-MSH binding; format: functional
SMILES,IA (Cell line [1]) [%],Ki (Melanocortin receptor 4 [2]) [nM],EC50 (Cell line [5]) [nM],further results
NC(Cc1ccccc1Cl)C(=O)N1CCN(c2ccccc2CNCCc2cccs2)CC1 (configuration not stated),<45,1000,,
O=C(C(O)c1ccc(Cl)cc1)N1CCN(c2ccccc2CNCCc2cccs2)CC1 (configuration not stated),<45,> 10000,,
O=C(N[C@H](Cc1ccc(Cl)cc1)C(=O)N1CCN(c2ccccc2CNCCc2cccs2)CC1)C1CCCNC1 (some centres not stated),12,15,,Ki (Melanocortin receptor 3): 1400 nM; Ki (Melanocortin receptor 5): 720 nM; Ki [3]: 2300 nM; IC50 (Cell line [4]): 36 nM
CC(N[C@@H]1CCCC[C@H]1N)c1ccccc1N1CCN(C(=O)[C@@H](Cc2ccc(Cl)cc2)NC(=O)CCN)CC1 (some centres not stated),64,150,590,
O=C(N[C@H](Cc1ccc(Cl)cc1)C(=O)N1CCN(c2ccccc2CNCCc2cccs2)CC1)c1cccnc1,5,41,,Ki (Melanocortin receptor 3): 1800 nM; Ki (Melanocortin receptor 5): 730 nM; inhibition [6]: 23%; IC50 (Cell line [4]): 880 nM
CC(NCCNc1cccc2ccccc12)c1ccccc1N1CCN(C(=O)[C@@H](Cc2ccc(Cl)cc2)NC(=O)CCN)CC1 (some centres not stated),22,290,,
CC(NCCc1cccs1)c1ccccc1N1CCN(C(=O)[C@@H](Cc2ccc(Cl)cc2)NC(=O)CCN)CC1 (some centres not stated),32,110,,
CC(c1ccccc1N1CCN(C(=O)[C@@H](Cc2ccc(Cl)cc2)NC(=O)CCN)CC1)N1CCN(c2ccccc2)CC1 (some centres not stated),35,430,,
COCC(=O)N[C@H](Cc1ccc(Cl)cc1)C(=O)N1CCN(c2ccccc2CNCCc2cccs2)CC1,16,70,,
NCCC(=O)OC(Cc1ccc(Cl)cc1)C(=O)N1CCN(c2ccccc2CNCCc2cccs2)CC1 (configuration not stated),<45,290,,
NCCC(=O)N[C@H](Cc1ccc(Cl)cc1)C(=O)N1CCN(c2ccccc2CNCCc2cccs2)CC1,14,21,,Ki (Melanocortin receptor 3): 1000 nM; Ki (Melanocortin receptor 5): 1000 nM; Ki [3]: 1300 nM; IC50 (Cell line [4]): 90 nM
CC(NCc1ccccc1N)c1ccccc1N1CCN(C(=O)[C@@H](Cc2ccc(Cl)cc2)NC(=O)CCN)CC1 (some centres not stated),100,120,364,
COc1ccc(Br)cc1CCc1c(F)cccc1-c1ncc[nH]1,,,,Ki (Melanocortin receptor 4 [7]): 160 nM
CC(NCCN1CCCCC1)c1ccccc1N1CCN(C(=O)[C@@H](Cc2ccc(Cl)cc2)NC(=O)CCN)CC1 (some centres not stated),41,210,,
O=C(N[C@H](Cc1ccc(Cl)cc1)C(=O)N1CCN(c2ccccc2CNCCc2cccs2)CC1)C1CCCCN1 (some centres not stated),60,75,1100,
N[C@H](Cc1ccc(Cl)cc1)C(=O)N1CCN(c2ccccc2CNCCc2cccs2)CC1,85,600,8700,
NCCCC(=O)N[C@H](Cc1ccc(Cl)cc1)C(=O)N1CCN(c2ccccc2CNCCc2cccs2)CC1,15,14,,Ki (Melanocortin receptor 3): 1400 nM; Ki (Melanocortin receptor 5): 1000 nM; Ki [3]: 1200 nM; IC50 (Cell line [4]): 66 nM
O=C(N[C@H](Cc1ccc(Cl)cc1)C(=O)N1CCN(c2ccccc2Cn2cncn2)CC1)[C@H]1Cc2ccccc2CN1,,,,EC50 (Cell line [8]): 80 nM
CC(c1ccccc1N1CCN(C(=O)[C@@H](Cc2ccc(Cl)cc2)NC(=O)CCN)CC1)N1CCN(C)CC1 (some centres not stated),59,86,471,
CC(NCc1ccco1)c1ccccc1N1CCN(C(=O)[C@@H](Cc2ccc(Cl)cc2)NC(=O)CCN)CC1 (some centres not stated),99,140,1870,
NC(CC(=O)N1CCN(c2ccccc2CNCCc2cccs2)CC1)c1ccc(Cl)cc1 (configuration not stated),<45,5400,,
COc1ccc2ccccc2c1CCCCN1CCN(CC(c2ccc(F)cc2)N2CCN(C)CC2)CC1 (configuration not stated),,,,Ki (Melanocortin receptor 4 [7]): 7.9 nM
NC(Cc1ccc(Cl)cc1)C(=O)N1CCN(c2ccccc2CNCCc2cccs2)CC1 (configuration not stated),<45,3900,,

SMILES,IA (Cell line [1]) [%],Ki (Melanocortin receptor 4 [2]) [nM],EC50 (Cell line [5]) [nM],further results
NC(C(=O)N1CCN(c2ccccc2CNCCc2cccs2)CC1)c1ccc(Cl)cc1 (configuration not stated),<45,1800,,
CC(Nc1ccccc1N)c1ccccc1N1CCN(C(=O)[C@@H](Cc2ccc(Cl)cc2)NC(=O)CCN)CC1 (some centres not stated),56,470,2720,
O=C([C@@H](Cc1ccc(Cl)cc1)NS(=O)(=O)CC(F)(F)F)N1CCN(c2ccccc2CNCCc2cccs2)CC1,<45,410,,
O=C(CCc1ccc(Cl)cc1)N1CCN(c2ccccc2CNCCc2cccs2)CC1,<45,1000,,
CC(C)(C(=O)N1CCN(c2ccccc2CNCCc2cccs2)CC1)c1ccc(Cl)cc1,<45,3800,,
O=C(N[C@H](Cc1ccc(Cl)cc1)C(=O)N1CCN(c2ccccc2CNCCc2cccs2)CC1)C1CCN1 (some centres not stated),47,48,1630,
CN(CCc1cccs1)Cc1ccccc1N1CCN(C(=O)[C@@H](Cc2ccc(Cl)cc2)NC(=O)CCN)CC1,32,220,,
CC(NC1CCCNC1)c1ccccc1N1CCN(C(=O)[C@@H](Cc2ccc(Cl)cc2)NC(=O)[C@H]2Cc3ccccc3CN2)CC1 (some centres not stated),,,,EC50 (Cell line [8]): 3.8 nM
CC(C)CC(N)C(=O)N[C@H](Cc1ccc(Cl)cc1)C(=O)N1CCN(c2ccccc2CNCCc2cccs2)CC1 (some centres not stated),45,30,2600,
O=C(N[C@H](Cc1ccc(Cl)cc1)C(=O)N1CCN(c2ccccc2CNCCc2cccs2)CC1)C1CCNCC1,39,26,,
O=C(N[C@H](Cc1ccc(Cl)cc1)C(=O)N1CCN(c2ccccc2CNCCc2cccs2)CC1)[C@H]1Cc2ccccc2CN1,100,,320,
O=C(Cc1ccc(Cl)cc1)N1CCN(c2ccccc2CNCCc2cccs2)CC1,<45,> 10000,,
NC1(C(=O)N[C@H](Cc2ccc(Cl)cc2)C(=O)N2CCN(c3ccccc3CNCCc3cccs3)CC2)CC1,12,46,,
NCC(Cc1ccc(Cl)cc1)C(=O)N1CCN(c2ccccc2CNCCc2cccs2)CC1 (configuration not stated),<45,6400,,
COc1ccc(Br)cc1CCc1c(Cl)cccc1-c1nc(C)c[nH]1,,,,Ki (Melanocortin receptor 4 [7]): 180 nM
O=C(CC1CCCN1)N[C@H](Cc1ccc(Cl)cc1)C(=O)N1CCN(c2ccccc2CNCCc2cccs2)CC1 (some centres not stated),57,40,1800,
NCC(=O)N[C@H](Cc1ccc(Cl)cc1)C(=O)N1CCN(c2ccccc2CNCCc2cccs2)CC1,77,44,580,Ki (Melanocortin receptor 3): 1900 nM; Ki (Melanocortin receptor 5): 990 nM; inhibition [6]: 50%
CCC(NCCc1cccs1)c1ccccc1N1CCN(C(=O)[C@@H](Cc2ccc(Cl)cc2)NC(=O)CCN)CC1 (some centres not stated),29,140,,
CC(CN1CCN(CC(c2ccc(F)cc2)N2CCN(C)CC2)CC1)C(=O)c1ccccc1 (configuration not stated),,,,IC50 [9]: 220 nM
CN(C)CC(=O)N[C@H](Cc1ccc(Cl)cc1)C(=O)N1CCN(c2ccccc2CNCCc2cccs2)CC1,45,38,1400,
O=C(N[C@H](Cc1ccc(Cl)cc1)C(=O)N1CCN(c2ccccc2CNCCc2cccs2)CC1)C1CCCN1 (some centres not stated),56,50,1900,
CC(C)(N)C(=O)N[C@H](Cc1ccc(Cl)cc1)C(=O)N1CCN(c2ccccc2CNCCc2cccs2)CC1,80,66,1500,
